Measurements taken from patent publication US20250214945A1, “THIOBENZIMIDAZOLE DERIVATIVE OR PHARMACEUTICALLY ACCEPTABLE SALT THEREOF, AND USE THEREOF” (KOREA UNIVERSITY RESEARCH AND BUSINESS FOUNDATION, priority 2022, published 2025).
pIC50: −log10 of the molar value.

Key:
[1] = test system: HER2 positive breast cancer (HER2+ BC) cell line JIMT-1; assay: MTS cell viability assay, JIMT-1 breast cancer cell line; type: cell-based; conditions: Homo sapiens, 0 to 10 μM, FIG. 3, one range stated for both cell lines and three compounds
Protocol: (§1) Human triple-negative breast cancer (TNBC) cell line MDA-MB-231 (Cell seeding numbers: 1(M231)×10^4 cells/wells (confluency ≥25%) and HER2 positive breast cancer (HER2^+ BC) cell line JIMT-1 (Cell seeding numbers: 1.2(JIMT)×10^4 cells/wells (confluency ≥25%)) were used in the experiments.
(§2) The above mentioned cell lines were cultured under a 5% CO2 environment at 37° C. in Dulbecco's modified Eagle's medium (DMEM) containing 10% fetal bovine serum (FBS), streptomycin-penicillin (100 U/mL) and Fungizone ([…]), respectively.
(§3) The human breast cancer cell lines MDA-MB-231 and JIMT-1 were treated with thiobenzimidazole derivatives of Chemical Formula 1-1 to Chemical Formula 1-17 at concentrations of 0, 0.5, 1 and 5 μM for 72 hours, respectively, and then cell viability was measured by MTS assay. The MTS assay was performed by attaching cells to 96-well plates for 24 hours, treating them with the above mentioned thiobenzimidazole derivatives for 72 hours, and then developing them with MTS (3-(4,5-dimethylthiazol-2-yl)-5-(3-carboxymethoxyphenyl)-2-(4-sulfophenyl)-2H-tetrazolium) for 4 hours, and measuring the absorbance at 490 nm using a Spectramax Plus384 microplate analyzer.
(§4) MDA-MB-231 and JIMT-1 cell lines were treated with the thiobenzimidazole derivatives of the present disclosure (Chemical Formula 1-10, 1-11 and 1-15) at concentrations of 0. 0.01, 0.05, 0.1, 0.1, 0.25, 0.5, 1, 5 and 10 μM, respectively, and then the cell viability and corresponding IC50 values were determined. The preparation and experimentation methods for the cell lines were the same as those used in the Example 1 experiments.

[2] = test system: Human triple-negative breast cancer (TNBC) cell line MDA-MB-231; assay: MTS cell viability assay, MDA-MB-231 breast cancer cell line; type: cell-based; conditions: 0 to 10 μM, FIG. 3, one range stated for both cell lines and three compounds
Protocol: as §1, §2, §3, §4

SMILES	pIC50 [1]	pIC50 [2]
COC(=O)Nc1nc2cc(Sc3ccc(N4CCS(=O)(=O)CC4)cc3)ccc2[nH]1 [1-10]	6.46 to 6.82	6.46 to 6.82
COC(=O)Nc1nc2cc(Sc3ccc(N4CC(C)N(S(C)(=O)=O)C(C)C4)cc3)ccc2[nH]1 (stereo not drawn) [1-11]	6.46 to 6.82	6.46 to 6.82
COC(=O)Nc1nc2cc(Sc3ccc(N4CCC(O)CC4)cc3)ccc2[nH]1 [1-15]	6.46 to 6.82	6.46 to 6.82
